Data reported in patent publication US20060251597A1, “ANTI-ODOR COMPOSITIONS AND THERAPEUTIC USE” (priority 2005, published 2006).
Counter-ions that a name gives are not always drawn. *1 amine or outer side, *2 acyl side, *3 side chain or, on linkers, in order; H or OH if unused. Where a SMILES comes first, the peptide text is derived from it. [ ]: non-standard residue; d: D form. γGlu = O=C(O)[C@H](CCC(=O)[*:2])N[*:1]

Experiment: anti-odor test, panel by sniffing: thiol or similar malodor compound in anhydrous composition
Settings: 2% malodor compound in anhydrous solution of isopropyl alcohol 50 parts, diethyl tartarate 25 parts, triethyl citrate 25 parts v/v
Protocol: In the same manner, the degree of reducing the presence or preventing the production of malodor generated by a thiol or similar malodor compounds in an anhydrous composition containing a solvent or ingredient of the present embodiments was judged by three-member panel through olfactory sensor by sniffing as (a) no difference from control, (b) slight malodor, (c) trace malodor, and (d) no malodor. In an initial test, a solvent or liquid ingredient of the present embodiments at 4.5 ml was added to a test tube, and a thiol or similar malodor compounds 0.5 g was added to make 10% thiol or similar malodor compounds in the solution. The control solution was prepared by dissolving a thiol or similar malodor compounds 0.5 g in water 4.5 ml to make 10% aqueous solution. The above test solutions including the control solutions were judged by the panel for the anti-odor effect and the degree of reducing the presence or preventing the production of malodor was recorded in the same way as (a) no effect (no difference from control), (b) slight malodor (50% effective), (c) trace malodor (90% effective), and (d) no malodor (completely effective).

Question: For `CCC(=O)N[C@@H](CS)C(=O)O` [N-Propanoyl-L-cysteine], which “malodor as judged by panel” value is on record?
Answer: did not have any malodor

Question: Which “malodor as judged by panel” value does the source give for `CC(=O)N[C@@H](CCC(=O)N[C@@H](CS)C(=O)NCC(=O)O)C(=O)O` [N-Acetyl-L-glutathione] (Ac-[γGlu]-Cys-Gly-OH) here?
Answer: did not have any malodor

Same assay, conditions: 10% malodor compound in anhydrous solution of isopropyl alcohol 50 parts, diethyl tartarate 25 parts, triethyl citrate 25 parts v/v

Question: Which “malodor as judged by panel” value does the source give for `CCOC(=O)CNC(=O)[C@H](CS)NC(=O)CC[C@H](N)C(=O)OCC` [L-Glutathione diethyl ester] here?
Answer: did not have any malodor

Question: With `COC(=O)[C@H](CSC(C)=O)NC(C)=O` [N,S-Diacetyl-L-cysteine methyl ester] as the compound, how does the “malodor as judged by panel” value read?
Answer: did not have any malodor

Question: With `CCOC(=O)[C@H](CSC(C)=O)NC(C)=O` [N,S-Diacetyl-L-cysteine ethyl ester] as the compound, how does the “malodor as judged by panel” value read?
Answer: did not have any malodor

Question: With `CCOC(=O)CNC(=O)[C@H](CS)NC(=O)CC[C@H](NC(C)=O)C(=O)OCC` [N-Acetyl-L-glutathione diethyl ester] as the compound, how does the “malodor as judged by panel” value read?
Answer: did not have any malodor

Same assay, conditions: 10% malodor compound in diethyl tartarate, anhydrous

Question: With `CCOC(=O)CNC(=O)[C@H](CS)NC(=O)CC[C@H](NC(C)=O)C(=O)OCC` [N-Acetyl-L-glutathione diethyl ester] as the compound, how does the “malodor as judged by panel” value read?
Answer: did not have any malodor

Experiment: anti-odor test, panel by sniffing: N-acetyl-L-cysteine dissolved in a single solvent or liquid ingredient (anhydrous composition)
Settings: 10% N-acetyl-L-cysteine and 90% solvent
Protocol: An anti-odor test was carried out in an anhydrous solvent according to the following example. In a series of test tubes, 4.5 ml of a solvent was added to a test tube such that each test tube comprised a single solvent. The solvents added to the test tubes included water, ethanol, acetone, n-propanol, isopropyl alcohol, propylene glycol, butylenes glycol, benzyl alcohol, ethoxydiglycol, 2-ethyl-1,3-hexanediol. N-Acetyl-L-cysteine (MW 163) 0.5 g was then added and dissolved in each solvent. The test tubes were warmed slightly to enhance dissolution of N-acetyl-L-cysteine crystals. Each test tube contained 10% N-acetyl-L-cysteine and 90% solvent.
An anti-odor test was carried out in an anhydrous composition according to the following example. In a series of test tubes, 4.5 ml of a liquid ingredient was added to a test tube such that each test tube comprised a single liquid ingredient. The liquid ingredients added to a test tube included ethyl glycolate, ethyl-L-lactate, diethyl tartrate, triethyl citrate, tripropyl citrate, ethyl-DL-mandelate, benzyl N-acetyl-prolinate, ethyl N-acetyl-prolinate, propyl N-acetyl-prolinate. N-Acetyl-L-cysteine (MW 163) 0.5 g was then added and dissolved in each liquid ingredient. The test tubes were warmed slightly to enhance dissolution of N-acetyl-L-cysteine crystals. Each test tube contained 10% N-acetyl-L-cysteine and 90% liquid ingredient. The panel judged the anti-odor effect in each test tube.

Question: For `OCCCCO` [butylene glycol], which “suppression of the malodor, judged by panel” value is on record?
Answer: did not suppress the malodor

Same assay, conditions: 10% N-acetyl-L-cysteine and 90% solvent or liquid ingredient

Question: Which anti-odor effect does the source give for `CCOC(=O)CC(O)(CC(=O)OCC)C(=O)OCC` [triethyl citrate] here?
Answer: 100%

Question: For `CCOC(=O)[C@@H]1CCCN1C(C)=O` [ethyl N-acetyl-prolinate], which anti-odor effect is on record?
Answer: 100%

Question: For `CCOCCOCCO` [ethoxydiglycol], which anti-odor effect is on record?
Answer: 100%

Question: With `CC(C)O` [isopropyl alcohol] as the compound, how does the anti-odor effect read?
Answer: 100%

Question: Which anti-odor effect does the source give for `CCOC(=O)C(O)C(O)C(=O)OCC` (stereo not drawn) [diethyl tartrate] here?
Answer: 100%

Question: For `CCCO` [n-propanol], which anti-odor effect is on record?
Answer: 100%

Question: With `CC(=O)N1CCC[C@H]1C(=O)OCc1ccccc1` [benzyl N-acetyl-prolinate] as the compound, how does the anti-odor effect read?
Answer: 100%

Question: Which anti-odor effect does the source give for `CCOC(=O)CO` [ethyl glycolate] here?
Answer: 100%

Question: With `CCCOC(=O)CC(O)(CC(=O)OCCC)C(=O)OCCC` [tripropyl citrate] as the compound, how does the anti-odor effect read?
Answer: 100%

Experiment: panel sniff tests of solvents, ingredients and amines against thiol malodor (general statements)
Settings: solvent or ingredient, based on the panel tests
Protocol: Initially, a malodor compound such as about 5% by weight was prepared in water solution or in oil-in-water emulsion. A sulfone or organic amine of the present embodiments was added at various concentrations for example, ranging from about 2%, 1%, 0.5% and 0.1% to the formulations containing the malodor substance. The composition containing the malodor substance without a sulfone or organic amine was used as the control.

Question: Which “prevention of malodor produced by a thiol or similar malodor compounds” value (“prevention of malodor produced” for short) does the source give for `CCOC(=O)CC(O)(CC(=O)OCC)C(=O)OCC` [triethyl citrate] here?
Answer: effectively prevent malodor

Question: Which “prevention of malodor produced” value does the source give for `CCOC(=O)[C@@H]1CCCN1C(C)=O` [ethyl N-acetyl-prolinate] here?
Answer: effectively prevent malodor

Question: With `CCOCCOCCO` [ethoxydiglycol] as the compound, how does the “prevention of malodor produced” value read?
Answer: effectively prevent malodor

Question: With `CC(C)O` [isopropyl alcohol] as the compound, how does the “prevention of malodor produced” value read?
Answer: effectively prevent malodor

Question: Which “prevention of malodor produced” value does the source give for `CCOC(=O)C(O)C(O)C(=O)OCC` (stereo not drawn) [diethyl tartrate] here?
Answer: effectively prevent malodor

Question: With `CCCO` [n-propanol] as the compound, how does the “prevention of malodor produced” value read?
Answer: effectively prevent malodor

Question: With `CC(=O)N1CCC[C@H]1C(=O)OCc1ccccc1` [benzyl N-acetyl-prolinate] as the compound, how does the “prevention of malodor produced” value read?
Answer: effectively prevent malodor

Question: Which “prevention of malodor produced” value does the source give for `OCCCCO` [butylene glycol] here?
Answer: effectively prevent malodor

Question: For `CCOC(=O)CO` [ethyl glycolate], which “prevention of malodor produced” value is on record?
Answer: effectively prevent malodor

Question: With `CCCOC(=O)CC(O)(CC(=O)OCCC)C(=O)OCCC` [tripropyl citrate] as the compound, how does the “prevention of malodor produced” value read?
Answer: effectively prevent malodor
